# Assays:
# male house mice = settings: wheat treated with 15% anthraquinone and chloroform; cited from earlier work
# [1] = tested on: Richardson's ground squirrels; assay: Richardson's ground squirrel concentration-response feeding experiment; assay type: in vivo, Urocitellus richardsonii Sabine
# California voles = assay: California vole concentration-response feeding experiment; assay type: in vivo, Microtus californicus Peale
# possums [2] = settings: 0.25% anthraquinone; cited from earlier work
# brown rats = settings: 0.04% and 0.08% anthraquinone; control baits 0.01-0.03% cinnamon, green carrots; cited from earlier work
# black rats = settings: 0.1% and 0.25% anthraquinone; cited from earlier work
# wild boar = settings: corn treated with 0.64% anthraquinone; cited from earlier work
# cottontail rabbits = assay: Cottontail rabbit concentration-response feeding experiment; assay type: in vivo, Sylvilagus audubonii Baird
# male common voles = settings: wheat treated with 15% anthraquinone and chloroform; cited from earlier work
# possums [3] = settings: 0.08% anthraquinone; cited from earlier work
# [4] = tested on: black-tailed prairie dogs; settings: corn seeds treated with 0.5-4.0% anthraquinone; cited from earlier work
# American crows = settings: in vivo; cited from earlier work
# female common voles = settings: wheat treated with 5% anthraquinone and chloroform; cited from earlier work
# Canada geese = settings: range printed jointly for Canada geese and red-winged blackbirds; cited from earlier work
# common grackles = settings: in vivo; cited from earlier work
# red-winged blackbirds = settings: range printed jointly for Canada geese and red-winged blackbirds; cited from earlier work
# ring-necked pheasants = settings: in vivo; cited from earlier work
# deer mice = assay: Deer mouse concentration-response feeding experiment; assay type: in vivo, Peromyscus maniculatus Wagner
smiles,measurement,setting,value
"O=C1c2ccccc2C(=O)c2ccccc21 [anthraquinone, 9,10-anthraquinone]",consumption of treated wheat relative to wheat treated only with chloroform,male house mice,greater consumption
same,feeding repellency,"[1]; whole oats treated with 0.5-2.0% anthraquinone (target; actual 5,380-18,500 ppm)",40-56%
same,repellency,"[1]; whole oats treated with 18,500 ppm anthraquinone",56%
same,anthraquinone dosage for observed threshold repellency,"California voles; at 18,300 ppm anthraquinone (84% repellency), mean vole BM=38.1 g",365.0±103.1 mg anthraquinone/kg BM
same,threshold concentration,California voles; can effectively repel voles from treated food,1.3 % (wt/wt)
same,predicted threshold concentration,"California voles; concentration needed to achieve 80% feeding repellency, non-linear regression, treated oats","about 13,400 ppm"
same,repellency,"California voles; whole oats treated with 0.25-2.0% anthraquinone (target, wt/wt; actual 2,050-18,300 ppm), test consumption (day 4) relative to pre-test consumption",24-84%
same,repellency,"California voles; whole oats treated with 18,300 ppm anthraquinone",84%
same,response to anthraquinone-treated baits,possums [2],aversion
same,consumption of anthraquinone-treated baits relative to control baits,brown rats,less
same,response to anthraquinone-treated baits,black rats,aversion
same,less treated corn consumed than untreated corn,wild boar,86.5%
same,anthraquinone dosage for observed threshold repellency,cottontail rabbits,149.9±28.1 mg anthraquinone/kg BM
same,repellency,"cottontail rabbits; oats treated with 4,790 ppm anthraquinone",68%
same,repellency,"cottontail rabbits; oats treated with 10,300 ppm anthraquinone",75%
same,feeding repellency,"cottontail rabbits; whole oats treated with 0.5-2.0% anthraquinone (target; actual 4,790-19,600 ppm)",68-85%
same,feeding repellency,"cottontail rabbits; whole oats treated with 19,600 ppm anthraquinone (target 2.0%)",85%
same,consumption of treated wheat relative to wheat treated only with chloroform,male common voles,no difference
same,consumption of anthraquinone-treated baits relative to control baits,possums [3],no different
same,repellency,[4],24-37%
same,predicted threshold concentration,American crows,"5,200 ppm"
same,less treated wheat consumed than wheat treated only with chloroform,female common voles,47%
same,predicted threshold concentration,Canada geese,"1,450-1,475 ppm"
same,predicted threshold concentration,common grackles,"9,200 ppm"
same,predicted threshold concentration,red-winged blackbirds,"1,450-1,475 ppm"
same,predicted threshold concentration,ring-necked pheasants,"10,450 ppm"
same,repellency,"deer mice; whole oats treated with 0.25-2.0% anthraquinone (target; actual 2,820-19,900 ppm)",19-52%
same,repellency,"deer mice; whole oats treated with 10,800 ppm anthraquinone",52%

# Source: US11252953B2, “Repellent and attractant composition for dichromatic animals” (The United States of America, Represented by the Secretary …, priority 2016, dated 2022)
